Measured values taken from publication PMC3162579 (Fluids and Barriers of the CNS, 2011).
Values joined by “and” are separate entries in the source; they are usually repeats but may differ in a detail not shown here. Equal entries are not always repeated.

Columns and labels:
[1] = tested on: brain-to-blood [^125I]hAβ(1-40) efflux transport across the BBB; assay: Brain Efflux Index (BEI) study: elimination of [^125I]hAβ(1-40) after intracerebral microinjection; type: in vivo; settings: for decrease of percentage of [^125I]hAβ(1-40) remaining in ipsilateral cerebrum versus vehicle-treated control: n = 5; for effect on percentage of [^125I]hAβ(1-40) remaining versus vehicle-treated control: single i.p. 1 μg/mouse
Description: Control mice were injected i.p. with 100 μL of each vehicle solution. After an indicated time (24, 48, or 72 h), the in vivo brain elimination experiments were performed using the intracerebral microinjection technique. Briefly, mice were anesthetized with an intramuscular injection of xylazine (1.22 mg/kg) and ketamine (125 mg/kg), and placed in a stereotaxic frame (SRS-6; Narishige, Tokyo, Japan) that determines the coordinates of the mouse brain coinciding with the secondary somatosensory cortex 2 (S2) region. A small hole was made 3.8 mm lateral to the bregma, and a fine injection needle fitted to a 5.0 μl microsyringe (Hamilton, Reno, NE, USA) was advanced to a depth of 2.5 mm. The solution of [^125I]hAβ(1-40) was freshly prepared from lyophilized [^125I]hAβ(1-40) immediately before each experiment. Lyophilized [^125I]hAβ(1-40) was solubilized in H2O and then added to an equal volume of 2-fold concentration of extracellular fluid (ECF) buffer (244 mM NaCl, 50 mM NaHCO3, 6 mM KCl, 2.8 mM CaCl2, 2.4 mM MgSO4, 0.8 mM K2HPO4, 20 mM D-glucose, and 20 mM HEPES, pH 7.4). […] The applied solution (0.3 μl) containing [^125I]hAβ(1-40) and [^3H]dextran in an ECF buffer was administered into the S2 region over a period of 30 sec. After microinjection, the microsyringe was left in place for 4 min to minimize any backflow. At 5, 30 or 60 min after microinjection, ipsilateral (left) and contralateral (right) cerebrum and cerebellum were excised and dissolved in 2.0 ml 2 M NaOH at 60°C for 1 h. The ^125I and ^3H radioactivities of the samples were measured in a γ-counter (ART300, Aloka, Tokyo, Japan) for 3 min and a liquid scintillation counter (TRI-CARB2050CA, Packard Instruments, Meriden, CT, USA) for 5 min, respectively. The BEI was defined by Equation (1), and the percentage of substrate remaining in the ipsilateral cerebrum (100-BEI) was determined using Equation (2): [drawing 1] [drawing 2]
The apparent elimination rate constant (kel) was determined from the slope given by fitting a semilogarithmic plot of (100-BEI) versus time, using the nonlinear least-squares regression analysis program MULTI [27].

TM-BBB4 cells [2] = assay: In vitro internalization (acid-resistant binding) of [^125I]hAβ(1-40) in TM-BBB4 cells; type: cell-based, mouse
Description: The TM-BBB4 cell line, established from transgenic mice harboring the temperature-sensitive SV40 large T-antigen gene, was used in this study. TM-BBB4 cells were cultured at 33°C in Dulbecco's modified Eagle's medium (DMEM; Nissui Pharmaceutical Co., Tokyo, Japan), supplemented with 20 mM NaHCO3, 2 mM L-glutamine, 15 ng/ml endothelial cell growth factor, 100 U/ml benzyl penicillin, […] streptomycin sulfate, and 10% fetal bovine serum (Moregate, Bulimba, Australia) in an atmosphere of 95% air and 5% CO2.
TM-BBB4 cells were seeded on 24-well plates (Becton Dickinson, Bedford, MA, USA) at a density of 1.0 × 10^5 cells/2 cm^2/well and cultured for 24 h. The cells were treated with the indicated concentrations of forskolin and U0126 or vehicle for 24 h, and then internalization of [^125I]hAβ(1-40) into TM-BBB4 cells was examined as previously described. Briefly, the extent of TM-BBB4 cell-[^125I]hAβ(1-40) (0.15 μCi/200 μl in ECF buffer) binding was measured for 3 min at 37°C. After the indicated times, binding was terminated by removing the solution, and the cells were washed three times with 1 ml ice-cold ECF buffer. The cells were then incubated with 1 ml ice-cold acetate-barbital buffer (28 mM CH3COONa, 120 mM NaCl, 20 mM barbital sodium (pH 3.0) and 360 mOsm/kg) for 20 min at 4°C to remove [^125I]hAβ(1-40) bound to the cell surface. After incubation, the buffer was then recovered (acid-soluble fraction) and the cells were subsequently washed three times with ice-cold acetate-barbital buffer.
(§1) Acid-resistant binding represents the amount of internalized [^125I]hAβ(1-40) in the TM-BBB4 cells. The cells were solubilized with 200 μl of 5 M NaOH overnight and neutralized with 200 μl of 5 M HCl. The ^125I radioactivity was measured using a γ-counter (ART310, Aloka, Tokyo, Japan). The protein content of the cultured cells was measured using a DC protein assay kit (Bio-Rad, Hercules, CA, USA) with bovine serum albumin as a standard.

[3] = tested on: elimination of [^125I]hAβ(1-40) from rat brain; settings: cited from earlier work
Description: The present study examined the [^125I]hAβ(1-40) elimination from the brain for 60 min, and considerable degradation of injected [^125I]hAβ(1-40) might occur during this period.

TM-BBB4 cells [4] = assay: Protein content of TM-BBB4 cells after the uptake (DC protein assay); type: cell-based, mouse
Description: as §1

[5] = Tolerability in mice: body weight, behavior, residual [^3H]dextran (BBB integrity); type: in vivo; settings: mouse, data not shown
[6] = after i.p. administration; cited from earlier work
Description: Reduction of Aβ in the CNS is considered to be a primary therapeutic target for AD.

[7] = parameters: method as in PMID 2339131; settings: mice receiving over 0.1 μg every other day for 2 weeks; cited from earlier work

C[C@H](/C=C/[C@H](C)C(C)(C)O)[C@H]1CC[C@H]2/C(=C/C=C3C[C@@H](O)C[C@H](O)C3)CCC[C@]12C [paricalcitol]
effect on [^125I]hAβ(1-40) elimination from mouse brain ([1]; data not shown): did not significantly enhance

C=C[C@@]1(C)CC(=O)[C@]2(O)[C@@]3(C)[C@@H](O)CCC(C)(C)[C@@H]3[C@H](O)[C@H](OC(C)=O)[C@@]2(C)O1 [forskolin]
decrease of percentage of [^125I]hAβ(1-40) remaining in mouse brain versus vehicle-treated group ([1]; single i.p. 2.3 μg/mouse, 24 h, 60 min after microinjection, n = 4-5): 16.4%
decrease of percentage of [^125I]hAβ(1-40) remaining in mouse brain versus vehicle-treated group ([1]; single i.p. 23 μg/mouse, 24 h, 60 min after microinjection, n = 4-5): 16.4%
effect on acid-resistant binding (internalization) of [^125I]hAβ(1-40) by TM-BBB4 cells (TM-BBB4 cells [2]; pre-treatment 10 μM for 24 h, 0.1% DMSO, [^125I]hAβ(1-40) 0.4 nM, 3 min, 37°C, n = 4): significantly increased

N[C@@H](Cc1ccc(O)cc1)C(=O)O [L-tyrosine]
inhibition of elimination of [^125I]hAβ(1-40) from rat brain [3]: not significantly inhibited

N#CC(=C(/N)Sc1ccccc1N)/C(C#N)=C(/N)Sc1ccccc1N [U0126]
effect on forskolin-induced enhancement of [^125I]hAβ(1-40) acid-resistant binding (TM-BBB4 cells [2]; U0126 25 μM with forskolin 10 μM for 24 h, [^125I]hAβ(1-40) 0.4 nM, 3 min, n = 4): suppressed
reduction of acid-resistant binding of [^125I]hAβ(1-40) compared with the control (TM-BBB4 cells [2]; pre-treatment with U0126 alone, 25 μM, 24 h, 3 min uptake, n = 4): 11.2%
protein content of the cells after the uptake (TM-BBB4 cells [4]; 24 h treatment (U0126 25 μM, forskolin 10 μM), mean ± SEM, n = 4, control 89.8 ± 6.0): 72.0 ± 7.0 μg protein/well
reduction of protein content of the cells after the uptake (TM-BBB4 cells [4]; U0126 25 μM, 24 h, versus control 89.8 ± 6.0 μg protein/well): 19.8%

C=C1/C(=C\C=C2/CCC[C@]3(C)[C@@H]([C@H](C)CCCC(C)(C)O)CC[C@@H]23)C[C@@H](O)C[C@@H]1O [1,25(OH)2D3, 1α,25-dihydroxyvitamin D3]
initial percentage of [^125I]hAβ(1-40) remaining in the mouse brain ([1]; 1 μg/mouse i.p., 24 h, not significantly different from vehicle (114%)): 118%
percentage of [^125I]hAβ(1-40) remaining in brain compared with vehicle-treatment group ([1]; mouse, 1 μg/mouse i.p., 24 h, 60 min after microinjection, time-profile experiment (Figure 1A)): significantly lower
increase of [^125I]hAβ(1-40) elimination rate constant versus vehicle-treated group ([1]; mouse, 1 μg/mouse i.p., 24 h after injection, p < 0.01): 1.3 fold and 1.29 fold
decrease of percentage of [^125I]hAβ(1-40) remaining in ipsilateral cerebrum versus vehicle-treated control ([1]; mouse, single i.p. 0.2 μg/mouse, 24 h, 60 min after microinjection): 12.9%
effect on percentage of [^125I]hAβ(1-40) remaining versus vehicle-treated control ([1]; mouse, 24 h after administration, 60 min after microinjection, n = 4-5 (Figure 2B)): significant reduction
effect on percentage of [^125I]hAβ(1-40) remaining versus vehicle-treated control ([1]; mouse, 48 h after administration, 60 min after microinjection, n = 4-5): no significant reduction
effect on percentage of [^125I]hAβ(1-40) remaining versus vehicle-treated control ([1]; mouse, 72 h after administration, 60 min after microinjection, n = 4-5): no significant reduction
decrease of percentage of [^125I]hAβ(1-40) remaining in ipsilateral cerebrum versus vehicle-treated control ([1]; mouse, single i.p. 5 μg/mouse, 24 h, 60 min after microinjection): 19.5%
apparent elimination rate constant (kel) of [^125I]hAβ(1-40) across the BBB ([1]; mouse, single i.p. dose 1 μg/mouse, 24 h before microinjection, slope of (100-BEI) time profile 5-60 min, mean ± SD, n = 3-5, vehicle group 1.85 × 10^-2): 0.0238 ± 0.0009 min⁻¹
effect on [^125I]hAβ(1-40) internalization by TM-BBB4 (TM-BBB4 cells [2]; data not shown): failed to provide consistent results
adverse effects during repeated treatment ([5]; 1 μg/day, from day 4): reduced body weight and abnormal behavior
body weight ([5]; single i.p. dose, up to 72 h after administration): No significant decrease
time at which plasma concentration reaches a maximum [6]: ≤ 2 h
time at which plasma concentration returns to baseline [6]: 24 h
hypercalcemia (calcium level) [7]: over 12 mg/dL
